Experimental data: patent publication US20260027083A1, “USE OF PPAR AGONIST FOR IMPROVEMENT OF ENERGY METABOLISM” (NOVMETAPHARMA CO., LTD., priority 2022, published 2026)

What was measured:
[1] = biological target: T1, PPARβ/δ (Homo sapiens, UniProt Q03181); assay: Gal4 trans-activated luciferase reporter assay, PPARβ/δ-LBD, HEK293; assay type: cell-based; conditions: HEK293, drug treatment 24 hours, FIG. 1
T1 construct: three types of pcDNA5-GAL4 and pGALRE-luc containing PPARα-LBD, PPARβ/δ-LBD, or PPARγ-LBD; GAL4 (fusion partner from vector pcDNA5-GAL4); expressed in transfected cells; host or cells: HEK293
T1 sequence (Q03181 211-439 limits assumed): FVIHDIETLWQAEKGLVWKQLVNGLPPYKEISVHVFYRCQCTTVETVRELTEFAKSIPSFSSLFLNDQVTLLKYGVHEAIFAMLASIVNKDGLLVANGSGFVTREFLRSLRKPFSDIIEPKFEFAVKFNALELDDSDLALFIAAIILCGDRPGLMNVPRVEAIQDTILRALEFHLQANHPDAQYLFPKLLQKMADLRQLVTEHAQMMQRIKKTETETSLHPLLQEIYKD
Procedure: A plasmid was transformed into E. coli (DE3, Rosetta) and transfected into HEK293 cells and used. Referring to known literatures such as Kanno, Y. & Inouye, Y. J Toxicol Sci 35, 515-525 (2010), Zhao, S. et al. J Nat Prod 79, 879-885 (2016), etc., luciferase assay was performed on three types of pcDNA5-GAL4 and pGALRE-luc containing PPARα-LBD, PPARβ/δ-LBD, or PPARγ-LBD. pProEX-PPAR and pET-28a were used for purification of His-tagged recombinant hPPAR-LBD protein.
A HEK293 cell line was cultured in Dulbecco's Modified Eagle Medium (DMEM) containing 10% Fetal Bovine Serum (FBS) and 1% penicillin-streptomycin (P/S). […]
Transfected HEK293 cells were treated with a drug and after 24 hours, the cells were collected, resuspended in a luciferase lysis buffer (Promega, Madison, Wisconsin, USA), and incubated on ice for 10 minutes. […] Next, Firefly Luciferase (Fluc) and Renilla Luciferase (Rluc) activities were measured using the Dual Luciferase Reporter Assay System (Promega, Madison, Wisconsin, USA). […]
To confirm whether a compound represented by Chemical Formula 1 was a PPAR agonist, Gal4 trans-activated luciferase assay was performed. Specifically, HEK293 cells were transfected with the Gal4-luciferase reporter systems of PPARα, PPARβ/δ, and PPARγ, respectively, harvested after drug treatment for 24 hours, and then analyzed by Dual-Luciferase assay. […]

[2] = test system: high-fat diet mice; assay: Histology of adipose tissues of high-fat diet mice (H&E); assay type: in vivo, C57BL/6J mice; conditions: 5 mg/kg/day oral, 60% HFD
Procedure: The care and use of experimental animals were carried out with the approval of the Institutional Animal Care and Use Committee of Pohang University of Science and Technology. C57BL/6J mice were purchased from Japan SLC, Inc. 50 four-week-old male C57/BL/6J mice were acclimated for 2 weeks. The mice were randomly divided and orally administered with vehicle or 5 mg/kg/day of D6 or WY14643 for 13 weeks (oral gavage), and obesity was induced by a 60% high-fat diet (#D12492, Research diets, NJ, USA). Body weights and food intakes were measured weekly from 6 weeks of age, and after 16 weeks of age, adipose tissue and muscle volumes were measured using a Trimodality imaging system.
Mouse tissues were fixed with 10% formalin solution (Sigma-Aldrich, St. Louis, MO, USA), and paraffin-embedded tissues were segmented and stained with hematoxylin and eosin (H&E) staining and Sirius Red staining (IHC world, Woodstock, USA).
To observe the effects of the compound represented by Chemical Formula 1 on metabolic diseases, biopsy was performed on adipose tissues of high-fat diet mice.

Structure (SMILES): COc1ccc(-c2cc(=O)oc3c(C)c(OC(=O)[C@H](Cc4c[nH]c5ccccc45)NC(=O)OC(C)(C)C)ccc23)cc1 [Chemical Formula 1, [4-(4-methoxyphenyl)-8-methyl-2-oxochromen-7-yl] (2S)-3-(1H-indol-3-yl)-2-[(2-methylpropan-2-yl)oxycarbonylamino]propanoate]
- relative luciferase activity (Fluc to Rluc) for PPARβ/δ [1]: dose-dependently increased
- adipocyte sizes in adipose tissue (H&E staining) ([2]; FIG. 14): reduced
- adipocyte size distribution, brown adipose tissue (BAT) ([2]; FIG. 15): reducing adipocyte sizes
- adipocyte size distribution, epididymal white adipose tissue (eWAT) ([2]; FIG. 15): reducing adipocyte sizes
- adipocyte size distribution, inguinal WAT (iWAT) ([2]; FIG. 15): reducing adipocyte sizes
